The values below are quoted from earlier work in patent publication US20080262086A1, “SUBSTITUTED ANTHRANILIC ACIDS” (AUSPEX PHARMACEUTICALS, INC., priority 2007, published 2008).

Each structure is given as a SMILES string.

The conditions of data set [1]: short half-life of bumetanide, background.
In data set [2] the test system is reabsorption of sodium, potassium, and chloride. The note with it: times more potent than furosemide.

The term half-life denotes how long it takes for the measured level to halve. Turning to `CCCCNc1cc(C(=O)O)cc(S(N)(=O)=O)c1Oc1ccccc1` [Bumetanide, 3-Butylamino-4-phenoxy-5-sulfamoyl-benzoic acid], in data set [1], the half-life was 1 to 1.5 h. The “potency relative to furosemide” value in data set [2] was “approximately 40 times”.
